In ChEMBL document CHEMBL1671851, “Population pharmacokinetics of rifampin in pulmonary tuberculosis patients, including a semimechanistic model to describe variable absorption” (Antimicrob Agents Chemother, 2008):

Key:
[1] = organism: Homo sapiens; assay: Absorption rate constant in pulmonary tuberculosis patient in Sequential 0 order and first order model; assay type: ADME, organism-based; conditions: in vivo
[2] = tested on: Homo sapiens; assay: AUC (0 to infinity) in indian pulmonary tuberculosis patient coinjected with HIV at 450 mg/day, po; assay type: ADME, organism-based, Plasma; set-up: dose 450 mg/day, time infinity, route oral; conditions: in vivo
[3] = Apparent oral clearance in pulmonary tuberculosis patient in first order model; assay type: ADME, organism-based; conditions: human, in vivo
[4] = tested on: Homo sapiens; assay: AUC (0 to 12 hrs) in kenyan pulmonary tuberculosis patient coinjected with HIV with body weight <=45 kg at 450 mg/day, po; assay type: ADME, organism-based, Plasma; set-up: time < 12 hr, dose 450 mg/day, route oral; conditions: in vivo
[5] = tested on: Homo sapiens; assay: AUC (0 to 12 hrs) in german pulmonary tuberculosis patient at 600 mg/day, po; assay type: ADME, organism-based, Plasma; set-up: dose 600 mg/day, time < 12 hr, route oral; conditions: in vivo
[6] = Apparent volume of distribution in pulmonary tuberculosis patient in transit compartment model; assay type: ADME, organism-based; conditions: human, in vivo; read-out: Vz
[7] = tested on: Homo sapiens; assay: AUC (0 to infinity) in indian pulmonary tuberculosis patient at 450 mg/day, po; assay type: ADME, organism-based, Plasma; set-up: dose 450 mg/day, route oral, time infinity; conditions: in vivo
[8] = tested on: Homo sapiens; assay: AUC (0 to 12 hrs) in kenyan pulmonary tuberculosis patient with body weight <=45 kg at 450 mg/day, po; assay type: ADME, organism-based, Plasma; set-up: time < 12 hr, dose 450 mg/day, route oral; conditions: in vivo
[9] = Apparent oral clearance in pulmonary tuberculosis patient in transit compartment model; assay type: ADME, organism-based; conditions: human, in vivo
[10] = tested on: Homo sapiens; assay: AUC (0 to 10 hrs) in north american pulmonary tuberculosis patient coinjected with HIV with body weight >50 kg at 600 mg/day, po; assay type: ADME, organism-based, Plasma; set-up: time < 10 hr, dose 600 mg/day, route oral; conditions: in vivo
[11] = tested on: Homo sapiens; assay: AUC (0 to 10 hrs) in north american pulmonary tuberculosis patient coinjected with HIV with body weight <=50 kg at 450 mg/day, po; assay type: ADME, organism-based, Plasma; set-up: time < 10 hr, dose 450 mg/day, route oral; conditions: in vivo
[12] = organism: Homo sapiens; assay: Absorption rate constant in pulmonary tuberculosis patient in first order and lag time model; assay type: ADME, organism-based; conditions: in vivo
[13] = tested on: Homo sapiens; assay: AUC (0 to 12 hrs) in kenyan pulmonary tuberculosis patient coinjected with HIV with body weight >45 kg at 600 mg/day, po; assay type: ADME, organism-based, Plasma; set-up: time < 12 hr, dose 600 mg/day, route oral; conditions: in vivo
[14] = tested on: Homo sapiens; assay: AUC (0 to 24 hrs) in south african pulmonary tuberculosis patient with body weight >50 kg at 600 mg/day, po; assay type: ADME, organism-based, Plasma; set-up: time < 24 hr, dose 600 mg/day, route oral; conditions: in vivo
[15] = organism: Homo sapiens; assay: Mean transient time in pulmonary tuberculosis patient in transit compartment model; assay type: ADME, organism-based; conditions: in vivo
[16] = tested on: Homo sapiens; assay: AUC (0 to 12 hrs) in kenyan pulmonary tuberculosis patient with body weight >45 kg at 600 mg/day, po; assay type: ADME, organism-based, Plasma; set-up: dose 600 mg/day, time < 12 hr, route oral; conditions: in vivo
[17] = Apparent volume of distribution in pulmonary tuberculosis patient in Sequential 0 order and first order model; assay type: ADME, organism-based; conditions: human, in vivo; read-out: Vz
[18] = Apparent volume of distribution in pulmonary tuberculosis patient in first order and lag time model; assay type: ADME, organism-based; conditions: human, in vivo; read-out: Vz
[19] = tested on: Homo sapiens; assay: AUC (0 to 24 hrs) in indonesian pulmonary tuberculosis patient at 450 mg/day, po; assay type: ADME, organism-based, Plasma; set-up: dose 450 mg/day, time < 24 hr, route oral; conditions: in vivo
[20] = Apparent volume of distribution in pulmonary tuberculosis patient in first order model; assay type: ADME, organism-based; conditions: human, in vivo; read-out: Vz
[21] = tested on: Homo sapiens; assay: AUC (0 to 24 hrs) in south african pulmonary tuberculosis patient with body weight <=50 kg at 450 mg/day, po; assay type: ADME, organism-based, Plasma; set-up: time < 24 hr, dose 450 mg/day, route oral; conditions: in vivo
[22] = organism: Homo sapiens; assay: Absorption rate constant in pulmonary tuberculosis patient in first order model; assay type: ADME, organism-based; conditions: in vivo
[23] = Apparent oral clearance in pulmonary tuberculosis patient in Sequential 0 order and first order model; assay type: ADME, organism-based; conditions: human, in vivo
[24] = organism: Homo sapiens; assay: Absorption rate constant in pulmonary tuberculosis patient in transit compartment model; assay type: ADME, organism-based; conditions: in vivo
[25] = tested on: Homo sapiens; assay: AUC (0 to 24 hrs) in indonesian pulmonary tuberculosis patient at 600 mg/day, po; assay type: ADME, organism-based, Plasma; set-up: time < 24 hr, dose 600 mg/day, route oral; conditions: in vivo
[26] = Apparent oral clearance in pulmonary tuberculosis patient in first order and lag time model; assay type: ADME, organism-based; conditions: human, in vivo

SMILES: CO[C@H]1/C=C/O[C@@]2(C)Oc3c(C)c(O)c4c(O)c(c(/C=N/N5CCN(C)CC5)c(O)c4c3C2=O)NC(=O)/C(C)=C\C=C\[C@H](C)[C@H](O)[C@@H](C)[C@@H](O)[C@@H](C)[C@H](OC(C)=O)[C@@H]1C [RIFAMPIN]
- Ka [1]: 1.23 L/h
- AUC [2]: 28200 ng·h/mL
- CL/F [3]: 323 mL/min
- AUC [4]: 19600 ng·h/mL
- AUC [5]: 60300 ng·h/mL
- Vd [6]: 53.2 L
- AUC [7]: 44600 ng·h/mL
- AUC [8]: 23100 ng·h/mL
- CL/F [9]: 320 mL/min
- AUC [10]: 30100 ng·h/mL
- AUC [11]: 30100 ng·h/mL
- Ka [12]: 1.64 L/h
- AUC [13]: 19600 ng·h/mL
- AUC [14]: 30700 ng·h/mL
- MTT [15]: 0.424 h
- AUC [16]: 23100 ng·h/mL
- Vd [17]: 51.5 L
- Vd [18]: 53.4 L
- AUC [19]: 48500 ng·h/mL
- Vd [20]: 52.8 L
- AUC [21]: 30700 ng·h/mL
- Ka [22]: 1.61 L/h
- CL/F [23]: 320 mL/min
- Ka [24]: 1.15 L/h
- AUC [25]: 79700 ng·h/mL
- CL/F [26]: 337 mL/min
